Results as given in patent US5840999A, “Asymmetric benzoxanthene dyes” (The Perkin-Elmer Corporation, priority 1997, dated 1998).

Experiments:
Type in all cases: physicochemical
[1] = Emission spectra of pure dyes (Table II); settings: pure dye isomer 2, room temperature; for λmax Em: 1×TBE buffer pH 8.4, absorbance 0.05 at λmax Abs; for Width at Half Height: emission spectrum in 1×TBE buffer pH 8.4
[2] = Relative brightness at λmax Em with 514 nm excitation; settings: pure dye isomer 2, approximately equal concentrations (λmax Abs=0.05)
Method: (§1) See FIGS. 1 and 2 for the structures of the dyes referred to in the table. All data are reported for pure dye isomer 2. All emission spectra were recorded in 1×TBE buffer at pH 8.4 in dye solutions having an absorbance of 0.05 at λmax Abs (ca. 1×10^-6 M) at room temperature. Photodecomposition rate was determined for equal volumes of the dyes at initially 1 absorption unit at λmax Abs and run in pairs at equal volumes under equal high intensity white light irradiation at 35° C. in 1×TBE buffer pH 8.4. […] (λmax Abs=0.05).

[3] = Stability in concentrated NH4OH at 60° C.; settings: pure dye isomer 2, concentrated ammonia hydroxide, sealed vials, first order fit
Method: as §1

[4] = Photodecomposition under high intensity white light; settings: pure dye isomer 2, 35° C., 1×TBE buffer pH 8.4, from t1/2 for loss of dye
Method: as §1

Relative Photostability [4] | Substance | λmax Em [1] [nm] | Width at Half Height [1] [nm] | Relative Brightness [2] | Stability in NH4OH - t1/2 [3] [h]
– | TAMRA | 577 | 39 | 0.9 | 1.3
17 | 6-carboxy-4,7,2',4',5',7',-hexachlorofluorescein | 550 | 32 | 2.4 | 11
